{"source": "PubChem BioAssay AID1259407", "about": "(Chemical Carcinogenesis Research Information System (CCRIS), 2018)", "tested_on": "CCRIS mutagenicity, Ames/micronucleus/aberration tests", "experiment": "CCRIS mutagenicity studies", "conditions": "Test System: AMES SALMONELLA TYPHIMURIUM", "key": {"[1]": {"conditions": "Strain/Indicator: TA98, Metabolic Activation: NONE, Method: PREINCUBATION"}, "[2]": {"conditions": "Strain/Indicator: TA100, Metabolic Activation: NONE, Method: PREINCUBATION"}, "[3]": {"conditions": "Strain/Indicator: TA100, Metabolic Activation: NONE, Method: STANDARD PLATE"}}, "note": "Activity calls are given as the source filed them. The rule behind the calls is not given here."}
{"molecule": "Nc1ncnc2nc(-c3ccc([N+](=O)[O-])cc3)[nH]c12", "values": [{"measurement": "mutagenic call", "setting": "Strain/Indicator: TA98(1,8-DNP), Metabolic Activation: NONE, Method: PREINCUBATION", "value": "active; positive"}, {"measurement": "mutagenic call", "setting": "Strain/Indicator: TA98(1,8-DNP), Metabolic Activation: RAT, LIVER, S-9, PCB, Method: PREINCUBATION", "value": "active; positive"}, {"measurement": "mutagenic call", "setting": "Strain/Indicator: TA98(NR), Metabolic Activation: NONE, Method: PREINCUBATION", "value": "active; positive"}, {"measurement": "mutagenic call", "setting": "Strain/Indicator: TA98(NR), Metabolic Activation: RAT, LIVER, S-9, PCB, Method: PREINCUBATION", "value": "active; positive"}, {"measurement": "mutagenic call", "setting": "[1]", "value": "active; positive"}, {"measurement": "mutagenic call", "setting": "Strain/Indicator: TA98, Metabolic Activation: RAT, LIVER, S-9, PCB, Method: PREINCUBATION", "value": "active; positive"}, {"measurement": "mutagenic call", "setting": "Strain/Indicator: TA100(1,8-DNP), Metabolic Activation: RAT, LIVER, S-9, PCB, Method: PREINCUBATION", "value": "inactive; negative"}, {"measurement": "mutagenic call", "setting": "Strain/Indicator: TA100(NR), Metabolic Activation: NONE, Method: PREINCUBATION", "value": "inactive; negative"}, {"measurement": "mutagenic call", "setting": "Strain/Indicator: TA100(NR), Metabolic Activation: RAT, LIVER, S-9, PCB, Method: PREINCUBATION", "value": "inactive; negative"}, {"measurement": "mutagenic call", "setting": "[2]", "value": "active; positive"}, {"measurement": "mutagenic call", "setting": "Strain/Indicator: TA100, Metabolic Activation: RAT, LIVER, S-9, PCB, Method: PREINCUBATION", "value": "active; positive"}, {"measurement": "mutagenic call", "setting": "Strain/Indicator: YG1020, Metabolic Activation: NONE, Method: PREINCUBATION", "value": "active; positive"}, {"measurement": "mutagenic call", "setting": "Strain/Indicator: YG1020, Metabolic Activation: RAT, LIVER, S-9, PCB, Method: PREINCUBATION", "value": "active; positive"}, {"measurement": "mutagenic call", "setting": "Strain/Indicator: YG1021, Metabolic Activation: NONE, Method: PREINCUBATION", "value": "active; positive"}, {"measurement": "mutagenic call", "setting": "Strain/Indicator: YG1021, Metabolic Activation: RAT, LIVER, S-9, PCB, Method: PREINCUBATION", "value": "active; positive"}, {"measurement": "mutagenic call", "setting": "Strain/Indicator: YG1024, Metabolic Activation: NONE, Method: PREINCUBATION", "value": "active; positive"}, {"measurement": "mutagenic call", "setting": "Strain/Indicator: YG1024, Metabolic Activation: RAT, LIVER, S-9, PCB, Method: PREINCUBATION", "value": "active; positive"}, {"measurement": "mutagenic call", "setting": "Strain/Indicator: YG1025, Metabolic Activation: NONE, Method: PREINCUBATION", "value": "active; positive"}, {"measurement": "mutagenic call", "setting": "Strain/Indicator: YG1025, Metabolic Activation: RAT, LIVER, S-9, PCB, Method: PREINCUBATION", "value": "active; positive"}, {"measurement": "mutagenic call", "setting": "Strain/Indicator: YG1026, Metabolic Activation: NONE, Method: PREINCUBATION", "value": "active; positive"}, {"measurement": "mutagenic call", "setting": "Strain/Indicator: YG1026, Metabolic Activation: RAT, LIVER, S-9, PCB, Method: PREINCUBATION", "value": "active; positive"}, {"measurement": "mutagenic call", "setting": "Strain/Indicator: YG1029, Metabolic Activation: NONE, Method: PREINCUBATION", "value": "active; positive"}, {"measurement": "mutagenic call", "setting": "Strain/Indicator: YG1029, Metabolic Activation: RAT, LIVER, S-9, PCB, Method: PREINCUBATION", "value": "active; positive"}]}
{"molecule": "O=c1c(O)c2c(c3c1ccc1[nH]cccc13)O2", "values": [{"measurement": "mutagenic call", "setting": "[3]", "value": "inactive; negative"}]}
{"molecule": "Cc1cccc([N+](=O)[O-])c1C", "values": [{"measurement": "mutagenic call", "setting": "[1]", "value": "inactive; negative"}, {"measurement": "mutagenic call", "setting": "Strain/Indicator: TA98, Metabolic Activation: RAT, LIVER, S-9, KANECHLOR 500, Method: PREINCUBATION", "value": "inactive; negative"}, {"measurement": "mutagenic call", "setting": "[2]", "value": "inactive; negative"}, {"measurement": "mutagenic call", "setting": "Strain/Indicator: TA100, Metabolic Activation: RAT, LIVER, S-9, KANECHLOR 500, Method: PREINCUBATION", "value": "inactive; negative"}]}
{"molecule": "ClC[C@@H](Br)CBr", "values": [{"measurement": "mutagenic call", "setting": "Strain/Indicator: TA100, Metabolic Activation: RAT, LIVER, MICROSOMES, Method: PREINCUBATION", "value": "active; positive"}]}
{"molecule": "CCCCOc1cc(N=Nc2ccc(N(CC)CC)cc2)ccc1N=Nc1c(S(=O)(=O)O)cc2ccc(N)cc2c1O", "values": [{"measurement": "mutagenic call", "setting": "Strain/Indicator: TA98, Metabolic Activation: NONE, Method: STANDARD PLATE", "value": "inactive; negative"}, {"measurement": "mutagenic call", "setting": "Strain/Indicator: TA98, Metabolic Activation: RAT, LIVER, S-9, AROCLOR 1254, Method: STANDARD PLATE", "value": "active; positive"}, {"measurement": "mutagenic call", "setting": "[3]", "value": "inactive; negative"}, {"measurement": "mutagenic call", "setting": "Strain/Indicator: TA100, Metabolic Activation: RAT, LIVER, S-9, AROCLOR 1254, Method: STANDARD PLATE", "value": "inactive; negative"}, {"measurement": "mutagenic call", "setting": "Strain/Indicator: TA1538, Metabolic Activation: NONE, Method: STANDARD PLATE", "value": "inactive; negative"}, {"measurement": "mutagenic call", "setting": "Strain/Indicator: TA1538, Metabolic Activation: RAT, LIVER, S-9, AROCLOR 1254, Method: STANDARD PLATE", "value": "active; positive"}]}
{"molecule": "NC(Cc1c[nH]c2ccccc12)C(=O)O", "note": "(stereo not drawn)", "values": [{"measurement": "mutagenic call", "setting": "Strain/Indicator: TA98, Metabolic Activation: RAT LIVER S-9, CHLOROPHENE, Method: STANDARD PLATE (COMPOUND HEATED AT 250 DEGREES CELSIUS FOR 20 MIN)", "value": "inactive; negative"}]}
{"molecule": "CC(=O)N(O)c1ccc(Oc2ccc(Cl)cc2Cl)cc1", "values": [{"measurement": "mutagenic call", "setting": "[3]", "value": "inactive; negative"}, {"measurement": "mutagenic call", "setting": "Strain/Indicator: TA100, Metabolic Activation: RAT, LIVER, S-9, KANECLOR 500, Method: STANDARD PLATE", "value": "active; positive"}]}
